Source: patent publication US9695155B2, “Herbicidal substituted pyrimidinyloxy benzene compounds” (E. I. DU PONT DE NEMOURS AND COMPANY, priority 2013, dated 2017)

Experiments:
pigweed [1] = assay: Test A preemergence; type: in vivo, Amaranthus retroflexus; settings: 0 to 100 scale, 0 no effect, 100 complete control, approx. 10 days
In short: (§1)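 Visual injury scored 0–100 (100 = complete control) against untreated controls about 10 days after treatment in a greenhouse. Test chemicals, formulated with surfactant in non-phytotoxic solvent, were sprayed on soil preemergence or on 2-10 cm, one- to two-leaf plants postemergence.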

giant foxtail [2] = assay: Test A preemergence; type: in vivo, Setaria faberii; settings: 0 to 100 scale, 0 no effect, 100 complete control, approx. 10 days
In short: as §1

kochia [3] = assay: Test A preemergence; type: in vivo, Kochia scoparia; settings: 0 to 100 scale, 0 no effect, 100 complete control, approx. 10 days
Excerpt: (§2) Seeds of plant species selected from barnyardgrass (Echinochloa crus-galli), kochia (Kochia scoparia), ragweed (common ragweed, Ambrosia elatior), Italian ryegrass (Lolium multiflorum), large (Lg) crabgrass (Digitaria sanguinalis), giant foxtail (Setaria faberii), morningglory (Ipomoea spp.), pigweed (Amaranthus retroflexus), velvetleaf (Abutilon theophrasti), wheat (Triticum aestivum), and corn (Zea mays) were planted into a blend of loam soil and sand and treated preemergence with a directed soil spray using test chemicals formulated in a non-phytotoxic solvent mixture which included a surfactant.
(§3) At the same time, plants selected from these crop and weed species and also blackgrass (Alopecurus myosuroides), and galium (catchweed bedstraw, Galium aparine) were planted in pots containing the same blend of loam soil and sand and treated with postemergence applications of test chemicals formulated in the same manner. Plants ranged in height from 2 to 10 cm and were in the one- to two-leaf stage for the postemergence treatment. Treated plants and untreated controls were maintained in a greenhouse for approximately 10 days, after which time all treated plants were compared to untreated controls and visually evaluated for injury. Plant response ratings, summarized in Table A, are based on a 0 to 100 scale where 0 is no effect and 100 is complete control. A dash (-) response means no test result.

barnyardgrass [4] = assay: Test A postemergence; type: in vivo, Echinochloa crus-galli; settings: 0 to 100 scale, 0 no effect, 100 complete control
In short: as §1

corn = assay: Test A postemergence; type: in vivo, Zea mays; settings: 0 to 100 scale, 0 no effect, 100 complete control
In short: as §1

ragweed [5] = assay: Test A postemergence; type: in vivo, Ambrosia elatior
Excerpt: as §2, §3

kochia [6] = assay: Test A postemergence; type: in vivo, Kochia scoparia
Excerpt: as §2, §3

galium = assay: Test A postemergence; type: in vivo, Galium aparine
Excerpt: as §2, §3

Italian ryegrass [7] = assay: Test A preemergence; type: in vivo, Lolium multiflorum; settings: 0 to 100 scale, 0 no effect, 100 complete control, approx. 10 days
Excerpt: as §2, §3

giant foxtail [8] = assay: Test A postemergence; type: in vivo, Setaria faberii
In short: as §1

pigweed [9] = assay: Test A postemergence; type: in vivo, Amaranthus retroflexus
In short: as §1

Italian ryegrass [10] = assay: Test A postemergence; type: in vivo, Lolium multiflorum
Excerpt: as §2, §3

ragweed [11] = assay: Test A preemergence; type: in vivo, Ambrosia elatior; settings: 0 to 100 scale, 0 no effect, 100 complete control, approx. 10 days
Excerpt: as §2, §3

barnyardgrass [12] = assay: Test A preemergence; type: in vivo, Echinochloa crus-galli; settings: 0 to 100 scale, 0 no effect, 100 complete control, approx. 10 days
In short: as §1

wheat = assay: Test A postemergence; type: in vivo, Triticum aestivum
In short: as §1

blackgrass = assay: Test A postemergence; type: in vivo, Alopecurus myosuroides; settings: 0 to 100 scale, 0 no effect, 100 complete control
Excerpt: as §2, §3

[13] = 500 g ai/ha, 0 to 100 scale where 0 is no effect and 100 is complete control
[14] = 1000 g ai/ha, 0 to 100 scale, 0 no effect, 100 complete control

SMILES: Oc1cccc(Oc2ncc(Cl)cn2)c1-n1cc(Br)cn1 [Compound 68]
- Pigweed plant response rating (pigweed [1]; 500 g ai/ha): 30
- Foxtail, Giant plant response rating (giant foxtail [2]; 500 g ai/ha): 0
- Kochia plant response rating (kochia [3]; 500 g ai/ha): 0
- Plant response rating, Barnyardgrass (barnyardgrass [4]; 500 g ai/ha): 0
- Plant response rating, Corn (corn; 500 g ai/ha): 0
- Plant response rating, Ragweed (ragweed [5]; [13]): 0
- Plant response rating, Kochia (kochia [6]; [13]): 0
- Plant response rating, Galium (galium; [13]): 0
- Ryegrass, Italian plant response rating (Italian ryegrass [7]; 500 g ai/ha): 0
- Plant response rating, Foxtail, Giant (giant foxtail [8]; [13]): 0
- Plant response rating, Pigweed (pigweed [9]; [13]): 0
- Plant response rating, Ryegrass, Italian (Italian ryegrass [10]; [13]): 0
- Ragweed plant response rating (ragweed [11]; 500 g ai/ha): 0
- Barnyardgrass plant response rating (barnyardgrass [12]; 500 g ai/ha): 0
- Plant response rating, Wheat (wheat; [13]): 0
- Plant response rating, Blackgrass (blackgrass; 500 g ai/ha): 0

SMILES: CN(C)C(=O)c1cccc(Oc2ncc(Cl)cn2)c1-n1cc(C(F)(F)F)cn1 [Compound 255]
- Pigweed plant response rating (pigweed [1]; 1000 g ai/ha): 60
- Foxtail, Giant plant response rating (giant foxtail [2]; 1000 g ai/ha): 10
- Kochia plant response rating (kochia [3]; 1000 g ai/ha): 70
- Plant response rating, Barnyardgrass (barnyardgrass [4]; 1000 g ai/ha): 10
- Plant response rating, Corn (corn; 1000 g ai/ha): 0
- Plant response rating, Ragweed (ragweed [5]; [14]): 10
- Plant response rating, Kochia (kochia [6]; [14]): 50
- Plant response rating, Galium (galium; [14]): 10
- Ryegrass, Italian plant response rating (Italian ryegrass [7]; 1000 g ai/ha): 20
- Plant response rating, Foxtail, Giant (giant foxtail [8]; [14]): 10
- Plant response rating, Pigweed (pigweed [9]; [14]): 30
- Plant response rating, Ryegrass, Italian (Italian ryegrass [10]; [14]): 0
- Ragweed plant response rating (ragweed [11]; 1000 g ai/ha): 20
- Barnyardgrass plant response rating (barnyardgrass [12]; 1000 g ai/ha): 10
- Plant response rating, Wheat (wheat; [14]): 0
- Plant response rating, Blackgrass (blackgrass; 1000 g ai/ha): 10
